According to US8530493B2, “Indolopyridines as Eg5 kinesin modulators” (4SC AG, priority 2006, dated 2013):

Legend:
[1] = system: RKO p27 induced (arrested) colon adenocarcinoma cells; test: Alamar Blue cell viability assay, RKO p27 induced by Ponasterone A (arrested); assay type: cell-based; details: Homo sapiens, RKOp27, Table B1, cells arrested by Ponasterone A-induced p27Kip1, 72 hours, read-out: −log EC50 RKO p27 induced (arrested) (converted)
Description: (§1) To determine the cell cycle specific mode of action, subclones of RKO colon adenocarcinoma cells (RKOp21 or RKOp27 as described by Schmidt et al. in Oncogene 19, 2423-2429; 2000) are seeded into 96 well flat bottom plates at a density of 16000 cells per well in a volume of 50 μl per well in DMEM growth medium with 10% FCS containing 10 μM Ponasterone A. 24 hours after seeding the 50 μl each of the compound dilutions in DMEM medium are added into each well of the 96-well plate. Each compound dilution is tested as triplicates. Wells containing untreated control cells are filled with 50 μl DMEM medium containing 1% DMSO. The cells are then incubated with the substances for 72 hours at 37° C. in a humidified atmosphere containing 5% carbon dioxide. To determine the viability of the cells, 10 μl of an Alamar Blue solution (Biosource) are added and the fluorescence is measured at an extinction of 544 nm and an emission of 590 nm. For the calculation of the cell viability the emission value from untreated cells is set as 100% viability and the emission rates of treated cells are set in relation to the values of untreated cells. Viabilities are expressed as % values. The Graphpad Prism program (GraphPad Software, Inc) is used for the calculation of EC50 values out of the obtained dose-response curves. Viability is compared of proliferating cells grown in the absence of the inducer Ponasterone A, versus viability of cells arrested by the expression of ectopic p27Kip1 induced by Ponasterone A.
(§2) Representative values for anti-proliferation/cytotoxicity [measured as −log EC50 (mol/l)] determined in the aforementioned assays follow from the following tables B1, B2 and B3, in which the numbers of the compounds correspond to the numbers of the examples.

[2] = system: RKO p27 uninduced (proliferating) colon adenocarcinoma cells; test: Alamar Blue cell viability assay, RKO p27 uninduced (proliferating); assay type: cell-based; details: Homo sapiens, RKOp27, Table B1, anti-proliferative/cytotoxic activity, 72 hours, read-out: −log EC50 RKO p27 uninduced (proliferating) (converted)
Description: The anti-proliferative/cytotoxic activity of the compounds described herein can be tested on subclones of RKO human colon adenocarcinoma cells (Schmidt et al., Oncogene 19, 2423-2429; 2000) using the Alamar Blue cell viability assay (described in O'Brien et al. Eur J Biochem 267, 5421-5426, 2000). The compounds are dissolved as 10 mM solutions in DMSO and subsequently diluted in semi-logarithmic steps. DMSO dilutions are further diluted 1:100 into Dulbecco's modified Eagle's medium (DMEM) containing 10% fetal calf serum to a final concentration twice as much as the final concentration in the test. RKO subclones are seeded into 96 well flat bottom plates at a density of 4000 cells per well in a volume of 50 μl per well. 24 hours after seeding the 50 μl each of the compound dilutions in DMEM medium are added into each well of the 96 well plate. Each compound dilution is tested as triplicates. Wells containing untreated control cells are filled with 50 μl DMEM medium containing 1% DMSO. The cells are then incubated with the substances for 72 hours at 37° C. in a humidified atmosphere containing 5% carbon dioxide. To determine the viability of the cells, 10 μl of an Alamar Blue solution (Biosource) are added and the fluorescence is measured at an extinction of 544 nm and an emission of 590 nm. For the calculation of the cell viability the emission value from untreated cells is set as 100% viability and the emission rates of treated cells are set in relation to the values of untreated cells. Viabilities are expressed as % values. The Graphpad Prism program is used for the calculation of EC50 values for anti-proliferative/cytotoxic activity out of the obtained dose-response curves.
as §1, §2

SMILES	EC50 [1] [nM]	EC50 [2] [nM]
CN(C)CCCN1C(=O)N2[C@H](c3cccc(O)c3)c3[nH]c4ccc(Cl)cc4c3C[C@@]2(C)C1=O (racemic) [Example 16, (3aSR,10RS)-6-Chloro-2-(3-dimethylamino-propyl)-10-(3-hydroxy-phenyl)-3a-methyl-3a,4,9,10-tetrahydro-2,9,10a-triaza-cyclopenta[b]fluorene-1,3-dione]	≥ 3160	≤ 39.8
C[C@@]12Cc3c([nH]c4ccc(Cl)cc34)[C@@H](c3cccc(O)c3)N1C(=O)N(CCN1CCCC1)C2=O (racemic) [Example 17, (3aSR,10RS)-6-Chloro-10-(3-hydroxy-phenyl)-3a-methyl-2-(2-pyrrolidin-1-yl-ethyl)-3a,4,9,10-tetrahydro-2,9,10a-triaza-cyclopenta[b]fluorene-1,3-dione]	≥ 3160	≤ 39.8
CC[C@@]12Cc3c([nH]c4ccc(OC)cc34)[C@@H](c3cccc(O)c3)N1C(=O)N(CCN(C)C)C2=O (racemic) [Example 18, (3aSR,10RS)-2-(2-Dimethylamino-ethyl)-3a-ethyl-10-(3-hydroxy-phenyl)-6-methoxy-3a,4,9,10-tetrahydro-2,9,10a-triaza-cyclopenta[b]fluorene-1,3-dione]	≥ 3160	≤ 39.8
CC[C@@]12Cc3c([nH]c4ccc(OC)cc34)[C@@H](c3cccc(O)c3)N1C(=O)N(CCCN(C)C)C2=O (racemic) [Example 19, (3aSR,10RS)-2-(3-Dimethylamino-propyl)-3a-ethyl-10-(3-hydroxy-phenyl)-6-methoxy-3a,4,9,10-tetrahydro-2,9,10a-triaza-cyclopenta[b]fluorene-1,3-dione]	≥ 3160	≤ 39.8
COc1ccc2[nH]c3c(c2c1)C[C@@]1(C)C(=O)N(CCCn2ccnc2)C(=O)N1[C@@H]3c1cccc(O)c1 (racemic) [Example 20, (3aSR,10RS)-10-(3-Hydroxy-phenyl)-2-(3-imidazol-1-yl-propyl)-6-methoxy-3a-methyl-3a,4,9,10-tetrahydro-2,9,10a-triaza-cyclopenta[b]fluorene-1,3-dione]	≥ 3160	≤ 39.8
CCOc1ccc2[nH]c3c(c2c1)C[C@@]1(C)C(=O)N(CCN(C)C)C(=O)N1[C@@H]3c1cccc(O)c1 (racemic) [Example 23, (3aSR,10RS)-2-(2-Dimethylamino-ethyl)-6-ethoxy-10-(3-hydroxy-phenyl)-3a-methyl-3a,4,9,10-tetrahydro-2,9,10a-triaza-cyclopenta[b]fluorene-1,3-dione]	≥ 3160	≤ 39.8
COc1ccc2[nH]c3c(c2c1)C[C@@]1(C)C(=O)N(CCN)C(=O)N1[C@@H]3c1cccc(O)c1 (racemic) [Example 25, (3aSR,10RS)-2-(2-Amino-ethyl)-10-(3-hydroxy-phenyl)-6-methoxy-3a-methyl-3a,4,9,10-tetrahydro-2,9,10a-triaza-cyclopenta[b]fluorene-1,3-dione]	≥ 3160	≤ 39.8
CNCCN1C(=O)N2[C@H](c3cccc(O)c3)c3[nH]c4ccc(OC)cc4c3C[C@@]2(C)C1=O (racemic) [Example 27, (3aSR,10RS)-10-(3-Hydroxy-phenyl)-6-methoxy-3a-methyl-2-(2-methylamino-ethyl)-3a,4,9,10-tetrahydro-2,9,10a-triaza-cyclopenta[b]fluorene-1,3-dione]	≥ 3160	≤ 39.8
CNCCN1C(=O)N2[C@H](c3cccc(O)c3)c3[nH]c4ccc(Cl)cc4c3C[C@@]2(C)C1=O (racemic) [Example 28, (3aSR,10RS)-6-Chloro-10-(3-hydroxy-phenyl)-3a-methyl-2-(2-methylamino-ethyl)-3a,4,9,10-tetrahydro-2,9,10a-triaza-cyclopenta[b]fluorene-1,3-dione]	≥ 3160	≤ 39.8

Further lines, with some results ahead:

EC50 [1] [nM]	SMILES	EC50 [2] [nM]
≥ 3160	C[C@@]12Cc3c([nH]c4ccc(Cl)cc34)[C@@H](c3cccc(O)c3)N1C(=O)N(CCN1CCC1)C2=O (racemic) [Example 29, (3aSR,10RS)-2-(2-Azetidin-1-yl-ethyl)-6-chloro-10-(3-hydroxy-phenyl)-3a-methyl-3a,4,9,10-tetrahydro-2,9,10a-triaza-cyclopenta[b]fluorene-1,3-dione]	≤ 39.8
≥ 3160	C[C@@]12Cc3c([nH]c4ccc(Cl)cc34)[C@@H](c3cccc(O)c3)N1C(=O)N(CCN)C2=O (racemic) [Example 30, (3aSR,10RS)-2-(2-Amino-ethyl)-6-chloro-10-(3-hydroxy-phenyl)-3a-methyl-3a,4,9,10-tetrahydro-2,9,10a-triaza-cyclopenta[b]fluorene-1,3-dione]	≤ 39.8
≥ 3160	C[C@@]12Cc3c([nH]c4ccc(Cl)cc34)[C@@H](c3cccc(O)c3)N1C(=O)N(CCn1ccnc1)C2=O (racemic) [Example 31, (3aSR,10RS)-6-Chloro-10-(3-hydroxy-phenyl)-2-(2-imidazol-1-yl-ethyl)-3a-methyl-3a,4,9,10-tetrahydro-2,9,10a-triaza-cyclopenta[b]fluorene-1,3-dione]	39.8 to 251
≥ 3160	COc1ccc2[nH]c3c(c2c1)C[C@@]1(C)C(=O)N(CCN2CCN(C(C)=O)CC2)C(=O)N1[C@@H]3c1cccc(O)c1 (racemic) [Example 32, (3aSR,10RS)-2-[2-(4-Acetyl-piperazin-1-yl)-ethyl]-10-(3-hydroxy-phenyl)-6-methoxy-3a-methyl-3a,4,9,10-tetrahydro-2,9,10a-triaza-cyclopenta[b]fluorene-1,3-dione]	39.8 to 251
≥ 3160	COc1ccc2[nH]c3c(c2c1)C[C@@]1(C)C(=O)N(CCN2CCC2)C(=O)N1[C@@H]3c1cccc(O)c1 (racemic) [Example 33, (3aSR,10RS)-2-(2-Azetidin-1-yl-ethyl)-10-(3-hydroxy-phenyl)-6-methoxy-3a-methyl-3a,4,9,10-tetrahydro-2,9,10a-triaza-cyclopenta[b]fluorene-1,3-dione]	≤ 39.8
≥ 3160	COc1ccc2[nH]c3c(c2c1)C[C@@]1(C)C(=O)N(CCN2CCC(F)(F)C2)C(=O)N1[C@@H]3c1cccc(O)c1 (racemic) [Example 34, (3aSR,10RS)-2-[2-(3,3-Difluoro-pyrrolidin-1-yl)-ethyl]-10-(3-hydroxy-phenyl)-6-methoxy-3a-methyl-3a,4,9,10-tetrahydro-2,9,10a-triaza-cyclopenta[b]fluorene-1,3-dione]	39.8 to 251
≥ 3160	CCNCCN1C(=O)N2[C@H](c3cccc(O)c3)c3[nH]c4ccc(OC)cc4c3C[C@@]2(C)C1=O (racemic) [Example 35, (3aSR,10RS)-2-(2-Ethylamino-ethyl)-10-(3-hydroxy-phenyl)-6-methoxy-3a-methyl-3a,4,9,10-tetrahydro-2,9,10a-triaza-cyclopenta[b]fluorene-1,3-dione]	≤ 39.8
≥ 316	CCNCCN1C(=O)N2[C@H](c3cccc(O)c3)c3[nH]c4ccc(Cl)cc4c3C[C@@]2(C)C1=O (racemic) [Example 37, (3aSR,10RS)-6-Chloro-2-(2-ethylamino-ethyl)-10-(3-hydroxy-phenyl)-3a-methyl-3a,4,9,10-tetrahydro-2,9,10a-triaza-cyclopenta[b]fluorene-1,3-dione]	≤ 39.8
≥ 316	CC(C)NCCN1C(=O)N2[C@H](c3cccc(O)c3)c3[nH]c4ccc(Cl)cc4c3C[C@@]2(C)C1=O (racemic) [Example 38, (3aSR,10RS)-6-Chloro-10-(3-hydroxy-phenyl)-2-(2-isopropylamino-ethyl)-3a-methyl-3a,4,9,10-tetrahydro-2,9,10a-triaza-cyclopenta[b]fluorene-1,3-dione]	≤ 39.8
